Experimental data as given in EP0540143B1, “Compounds and methods for inhibition of HIV and related viruses” (priority 1991, dated 1993).
Where “and” joins values, the source holds several entries; their conditions need not be identical. Identical values can stand only once.

Key:
HIV virus = assay: Test A (XTT), MT4 cells infected with HIV; format: cell-based; details: for inhibition at 10 µg/mL / inhibition at 0.1 µg/mL / inhibition at 100 µg/mL / inhibition at 1 µg/mL: Human immunodeficiency virus 1, MT4, Test A; for % inhibition: Test A
Procedure: (§1) Tests A, B, C, and D (XTT)
(§2) MT4 cells in a medium of RPMI 1640, 5% FCS, penicillin/streptomycin are adjusted to 2x10^5 cells/ml and seeded into microplates (96 wells/plate) 100 µl cell suspension/well giving 2x10^4 cells/well. The compound to be tested is made into a 10 mg/ml mixture in DMSO and stored at -20°C. The compound in DMSO is diluted with medium containing 10% DMSO in a 10-fold dilution series to give 1 mg/ml, 10 mg/ml, and […] solutions. Further dilutions to 400, 40, 4 and 0.4 mg/ml are made in medium containing microplates. Fifty µl of the 400, 40, and 4 mg/ml are transferred to the cell-containing microplates with a multi-channel pipette (final concentration: 100, 10, and 1 mg/ml). Finally, 50 µl of virus suspension is added to each well (with a repetitive "Eppendorf" multipipett). Each plate has at least six wells with the following: [Test A: HIV virus; Test B: HIV(II) virus; Test C: SIV virus; Test D: No virus]; with no drug (virus control) and six wells without virus (medium control). The plate is put into a plastic bag and incubated for six days in CO2 atmosphere. To each well in the plate is added 50 µl of XTT ((2,3-bis[2-methoxy-4-nitro-5-sulfophenyl]-5-[(phenylamino)carbonyl]-2H-tetrazolium hydroxide), (1 mg/ml 0.01-0.02 mM N-metyl-phenazonium methosulfate). After six hours of incubation in CO2 atmosphere the plates are covered with adhesive plate sealers and gently mixed on a vortex. Optical densities are determined at a wavelength of 450 nm and a reference wavelength of 650 nm. The percent reduction of cytotoxocity caused by the virus infection is calculated as follows: (OD450 compound - OD450 inf cells)/(OD450 uninf cells - OD450 inf cells)x 100 [formula]

HIV(II) virus = assay: Test B (XTT), MT4 cells infected with HIV(II); format: cell-based; details: for inhibition at 0.1 µg/mL / inhibition at 1 µg/mL / inhibition at 10 µg/mL / inhibition at 100 µg/mL: Human immunodeficiency virus 1, MT4, Test B
Procedure: as §1, §2

SIV virus = assay: Test C (XTT), MT4 cells infected with SIV; format: cell-based; details: for inhibition at 0.1 µg/mL / inhibition at 1 µg/mL / inhibition at 10 µg/mL / inhibition at 100 µg/mL: Simian immunodeficiency virus, MT4, Test C; for % inhibition: Test C
Procedure: as §1, §2

MT4 cells = assay: Test D (XTT), MT4 cells, no virus; format: cell-based; details: Homo sapiens
Procedure: as §1, §2

HIV-1 = assay: Test E (HIV-1 RT), RT activity in supernatant of infected MT-4/H9 cells; format: cell-based; details: for inhibition at 0.1 µg/mL / inhibition at 1 µg/mL / inhibition at 10 µg/mL / inhibition at 100 µg/mL: Human immunodeficiency virus 1, H9, Test E
Procedure: (§3) Tests E, F, G, H (HIV-IRT, HIV-2RT, SIVRT, no virus)
(§4) MT-4/H9-cells are adjusted to 2x10^5 cells/ml medium (RPMI 1640, 5% FCS, penicillin/streptomycin) and seeded into microplates (96 wells/plate) […] cell suspension/well giving 2 x 10^4 cells/well. The compound to be tested is made 10 mg/ml in DMSO = stock solution (stored at -20°C). The compound dissolved in DMSO is diluted 25 times in medium to give 400 mg/ml. Further dilutions to 40 mg/ml and 4 mg/ml are made in microplates.
(§5) 50 µl of the dilutions 400 mg/ml, 40 mg/ml and 4mg/ml are transferred to the "cell-containing" microplate with a multichannel pipette. […]
(§6) Finally 50 µl of virus suspension is added to each well (with a repetitive "Eppendorf multipett"). [Test E-HIV-1; Test F-HIV-2; Test G-SIV; Test H-no virus].
(§7) Each plate has at least four wells with virus but no drug (virus control) and two wells without virus (medium control). The plate is put into a plastic bag to avoid evaporation and incubated for six days in CO2-atmosphere. 10 µl supernatant from each well is transferred with a multichannel pipette into a new microplate to which 40 ml VDB, (50 mM Tris-HCl pH = 7.6, 35 mM KCl, 4 mM DTT, 1 mM EDTA, 1.3% Triton X-100), have been added to each well. The addition of 50 ml RT-reaction mix, (10 ml culture supernatant, 40 ml VDB and 50 ml reaction mixture giving a final concentration of: 100 mM Tris-HCl pH = 7.6, 100 mM KCl, 4 mM MgCl2, 4 mM DTT, 275 mg/ml BSA/ml, 5 mg (rA)n(dT)12-18/ml and 0.3 mM ^3H dTTP (specific activity 18.000 cpm/pmol)) gives a final volume of […]/well. After 60 minutes of incubation the whole assay volume is transferred by use of a cell harvester to a filter mat prewetted with 5% TCA. The filter is washed in 5% TCA and rinsed once in ethanol. After drying the filter mat at 60°C for 30 min. each filter (96/mat) is punched out and put into counting vials 2 ml of scintillation fluid is added and the samples are counted (1 min) or the whole filter mat is put into a plastic bag, 10 ml of scintillation fluid is added and the filter mat is counted in a Beckman Betaplate counter. Percent reduction of RT activity is determined by comparing RT activity for virus control with the RT activity measured for each dilution of the compound.

HIV-2 = assay: Test F (HIV-2 RT), RT activity in supernatant of infected MT-4/H9 cells; format: cell-based; details: for inhibition at 0.1 µg/mL / inhibition at 1 µg/mL / inhibition at 10 µg/mL / inhibition at 100 µg/mL: Human immunodeficiency virus 2, H9, Test F; for % inhibition: Test F
Procedure: as §3, §4, §5, §6, §7

recombinant HIV-RT = recombinant HIV-RT (Human immunodeficiency virus type 1 group M subtype B, UniProt P04585); assay: Test I (HIVRT (rAdt)), direct inhibition of recombinant HIV-RT; format: biochemical
Procedure: The compounds were tested for direct inhibitory activity on HIV-RT in a volume of […] recombinant HIV-RT (diluted in virus disruption buffer to give 200.000 cpm).
100 mM Tris-HCl pH 7.6, 100 mM KCl, 4 mM MgCl2, 4 mM DTT, 275 mg/ml BSA, 0.5 mg (rA)n(dT)12-18 and 0.3 mM ^3H- dTTP (specific activity […]). After 60 minutess of incubation 40 ml in duplicate were spotted on paper discs and washed in 5% TCA. After rinsing the paper discs in ethanol they were dried and counted in scintillation fluid.

Row | Structure (SMILES) | inhibition at 10 µg/mL (HIV virus; 10 µg/ml) [%] | % inhibition (HIV virus; 10 µg/ml) | inhibition at 0.1 µg/mL (HIV(II) virus) [%] | inhibition at 1 µg/mL (HIV(II) virus; 1 µg/ml) [%] | inhibition at 1 µg/mL (SIV virus; 1 µg/ml) [%] | inhibition at 10 µg/mL (SIV virus) [%] | inhibition at 100 µg/mL (SIV virus) [%] | inhibition at 1 µg/mL (MT4 cells) [%] | inhibition at 10 µg/mL (MT4 cells) [%] | inhibition at 100 µg/mL (MT4 cells) [%] | inhibition at 1 µg/mL (HIV-1) [%] | inhibition at 10 µg/mL (HIV-1) [%] | inhibition at 100 µg/mL (HIV-1) [%] | inhibition at 0.1 µg/mL (HIV-2) [%] | inhibition at 1 µg/mL (HIV-2; 1 µg/ml) [%] | inhibition at 10 µg/mL (HIV-2; 10 µg/ml) [%] | inhibition at 100 µg/mL (HIV-2; 100 µg/ml) [%] | inhibition at 0.1 µg/mL (recombinant HIV-RT; 0.1 µg/ml) [%] | inhibition at 1 µg/mL (recombinant HIV-RT; 1 µg/ml) [%] | inhibition at 10 µg/mL (recombinant HIV-RT; 10 µg/ml) [%] | other results
1 | FC(F)(F)c1csc(NC(=S)NCCc2ccccc2)n1 | 24 | 16% and 31% | 21 | 100 | 11 | 5 | 43 | 46 | 75 | 68 | 97 | 96 | 97 | 56 | 95 | 98 | 96 | 63 | 73 | 73 | % inhibition (HIV virus; 0.1 µg/ml): 62% and 84%; % inhibition (HIV virus; 1 µg/ml): 100% and 75% and 84%; inhibition at 10 µg/mL (HIV(II) virus): 38%; inhibition at 100 µg/mL (HIV(II) virus): 19%; inhibition at 0.1 µg/mL (SIV virus; 0.1 µg/ml): 9%; inhibition at 0.1 µg/mL (MT4 cells): 0%; inhibition at 0.1 µg/mL (HIV-1; 0.1 µg/ml): 98%; % inhibition (recombinant HIV-RT; 0.1 µg/ml): 68%; % inhibition (recombinant HIV-RT; 1 µg/ml): 75%; % inhibition (recombinant HIV-RT; 10 µg/ml): 75%
2 | Cc1nc(NC(=S)NCCc2ccccc2)sc1C | 85 | 88% | 13 | 100 | 0 | 1 | 0 | – | 0 | 0 | 23 | 91 | 94 | 1 | 92 | 61 | 93 | 34 | 39 | 38 | inhibition at 0.1 µg/mL (HIV virus; 0.1 µg/ml): 7%; inhibition at 100 µg/mL (HIV virus; 100 µg/ml): 99%; % inhibition (HIV virus; 100 µg/ml): 100%; inhibition at 10 µg/mL (HIV(II) virus): 100%; inhibition at 100 µg/mL (HIV(II) virus): 85%; inhibition at 0.1 µg/mL (HIV-1; 0.1 µg/ml): 1%
3 | N#Cc1csc(NC(=S)NCCc2ccccc2)n1 | 0 | – | 74 | 90 | 5 | 2 | 0 | 53 | 70 | 93 | 98 | 98 | 98 | 67 | 91 | 94 | 96 | 72 | 93 | 94 | inhibition at 0.1 µg/mL (HIV virus; 0.1 µg/ml): 84%; inhibition at 1 µg/mL (HIV virus; 1 µg/ml): 51%; inhibition at 100 µg/mL (HIV virus; 100 µg/ml): 0%; % inhibition (HIV virus; 1 µg/ml): 63%; inhibition at 10 µg/mL (HIV(II) virus): 0%; inhibition at 100 µg/mL (HIV(II) virus): 0%; inhibition at 0.1 µg/mL (SIV virus; 0.1 µg/ml): 11%; inhibition at 0.1 µg/mL (MT4 cells): 0%; inhibition at 0.1 µg/mL (HIV-1; 0.1 µg/ml): 99%; % inhibition (recombinant HIV-RT; 0.1 µg/ml): 73%; % inhibition (recombinant HIV-RT; 1 µg/ml): 95%; % inhibition (recombinant HIV-RT; 10 µg/ml): 95%
4 | S=C(NCCc1ccccc1)Nc1nnc[nH]1 | 27 | – | – | – | 5 | 8 | 15 | 33 | 33 | 0 | – | – | – | – | – | – | – | 12 | 14 | 14 | inhibition at 1 µg/mL (HIV virus; 1 µg/ml): 11%; inhibition at 100 µg/mL (HIV virus; 100 µg/ml): 45%; inhibition at 0.1 µg/mL (MT4 cells): 15%
5 | S=C(NCCc1ccccc1)Nc1nc2ccccc2s1 | 100 | 99% | 17 | 99 | 0 | 1 | 8 | 32 | 27 | 23 | 77 | 96 | 95 | 1 | 87 | 84 | 96 | 39 | 36 | 40 | inhibition at 0.1 µg/mL (HIV virus; 0.1 µg/ml): 0%; inhibition at 1 µg/mL (HIV virus; 1 µg/ml): 63%; % inhibition (HIV virus; 1 µg/ml): 53%; inhibition at 10 µg/mL (HIV(II) virus): 100%; inhibition at 100 µg/mL (HIV(II) virus): 50%; inhibition at 0.1 µg/mL (HIV-1; 0.1 µg/ml): 1%
6 | S=C(NCCc1ccccc1)Nc1nccs1 [the 1st table, row 1] | – | 99% and 100% and 70% and 98% | – | – | – | – | – | 18 | 33 | 45 | 99 | 99 | 99 | 43 | 75 | 57 | 95 | – | – | – | inhibition at 100 µg/mL (HIV virus; 100 µg/ml): 48%; % inhibition (HIV virus; 0.1 µg/ml): 4%; % inhibition (HIV virus; 100 µg/ml): 58% and 64%; % inhibition (HIV(II) virus; Test B, 1 µg/ml): 0%; % inhibition (SIV virus; 0.1 µg/ml): 0% and 1%; % inhibition (SIV virus; 1 µg/ml): 0% and 8% and 2%; inhibition at 0.1 µg/mL (MT4 cells): 31%; % inhibition (HIV-1; Test E, 0.1 µg/ml): 10% and 1%; % inhibition (HIV-2; 1 µg/ml): 79%; % inhibition (HIV-2; 10 µg/ml): 76%; % inhibition (HIV-2; 100 µg/ml): 86%
